Experimental data from ChEMBL document CHEMBL3430912, “GSK Tres Cantos Anti-Kinetoplastid Screening (TCAKS) Data”.

Experiments:
[1] = system: Trypanosoma cruzi; test: GSK_TCAKS: pIC50 Trypanosoma cruzi viability assay using beta-GAL activity. This assay was run at single shot at 5uM compound concentration per well. The biological reagents consisted of NIH-3T3 host cells and trypomastigotes parasitic cells; both cell types were set to a 3.3 * 10^5 cells/mL dilution in assay DMEM by means of a CASY cell counter device using a 60um capillary. 6 uL of the mixture were dispensed per well (about 1 * 10^3 host-cells and 1 * 10^3 parasites) with a Multidrop Combi dispenser. […] In all wells, the percentage of DMSO never exceeded 0.5%. Plates incubated for four days at 37C, 5% CO2. The substrate used for the assay fluorescence intensity (FLINT) readout was resorufin-beta-D-galactopiranoside (Sigma-Aldrich) at 5uM per well. It was diluted in PBS supplemented with the soft detergent Igepal (Fluka).; type: functional, organism-based, Mus musculus; details: Tulahuen, NIH3T3
[2] = system: Trypanosoma cruzi; test: (§1) GSK_TCAKS: pIC50 Trypanosoma cruzi Imaging: Infected Cells. […] Cells were then washed once with PBS before infection. T. cruzi trypomastigotes, collected at days 5 to 8 after infection from LLC-MK2 parasite infected cultures, were allowed to swim out for 4h at 37C from a centrifuged pellet (2,500 rpm/10 min/room temperature). Trypomastigotes were then collected and counted in a CASY Cell Counter. Trypomastigotes, in supplemented DMEM, were added to H9c2 cultures in a multiplicity of infection of 1 and incubated for 18 h. Cells were washed once with PBS before incubation of the infected H9c2 monolayer with trypsin (Life-Technologies) to detach cells from the flask. Cells were counted in a CASY Cell Counter using a 150 um capillary and their density set at 5 * 10^4 cells per mL in supplemented assay DMEM. Infected H9c2 were dispensed into 384-well poly-lysine coated assay plates at 50uL per well using a Multidrop Combi dispenser. After seeding them, the plates were incubated at 37C, 5% CO2 for 72h. Cultures were then fixed and stained by addition of 50 uL of a solution containing 8% formaldehyde and 4 uM DRAQ5 DNA dye (BioStatus, UK) per well. […] Five images were collected per well for reliable statistical analysis. Automated image analysis was performed with a script developed on Acapella High Content Imaging and Analysis Software (PerkinElmer). Output: percentage of infected cells per well as a second infection marker.; type: functional, organism-based, Rattus norvegicus; details: H9c2, 4 h
[3] = system: Trypanosoma cruzi; test: GSK_TCAKS: pIC50 Trypanosoma cruzi Imaging: Amastigotes/Cell. […] Cells were then washed once with PBS before infection. T. cruzi trypomastigotes, collected at days 5 to 8 after infection from LLC-MK2 parasite infected cultures, were allowed to swim out for 4h at 37C from a centrifuged pellet (2,500 rpm/10 min/room temperature). Trypomastigotes were then collected and counted in a CASY Cell Counter. Trypomastigotes, in supplemented DMEM, were added to H9c2 cultures in a multiplicity of infection of 1 and incubated for 18 h. Cells were washed once with PBS before incubation of the infected H9c2 monolayer with trypsin (Life-Technologies) to detach cells from the flask. Cells were counted in a CASY Cell Counter using a 150 um capillary and their density set at 5 * 10^4 cells per mL in supplemented assay DMEM. Infected H9c2 were dispensed into 384-well poly-lysine coated assay plates at 50uL per well using a Multidrop Combi dispenser. After seeding them, the plates were incubated at 37C, 5% CO2 for 72h. Cultures were then fixed and stained by addition of 50 uL of a solution containing 8% formaldehyde and 4 uM DRAQ5 DNA dye (BioStatus, UK) per well. […] Five images were collected per well for reliable statistical analysis. Automated image analysis was performed with a script developed on Acapella High Content Imaging and Analysis Software (PerkinElmer). Output: number of amastigotes per cell as infection level measurement.; type: functional, organism-based, Rattus norvegicus; details: H9c2, 4 h
[4] = system: Trypanosoma cruzi; test: as §1, with “H2C9” for “Trypanosoma cruzi”, “H9c2 Host Cardiomyocytes.” for “Infected Cells.”, “Number” for “percentage”, “H9c2 Host Cardiomyocytes nuclei to determine drug-related cytotoxicity.” for “infected cells per well as a second infection marker.”; type: functional, organism-based, Rattus norvegicus; details: H9c2, 4 h
[5] = system: Leishmania donovani; test: GSK_TCAKS: pIC50 Leishmania donovani viability assay using fluorescence intensity. Assay plates (1536-well) were prepared by adding 30nL per well of compound. For single shot assay, the final compound concentration was 5uM. […] Briefly, eGFP LdBOB axenic amastigotes were harvested, fixed and counted in a CASY cell counter (Roche-Applied Science). A final concentration of 1.5 * 10^5 cells per well were prepared in amastigote media containing 500 U/mL penicillin/streptomycin (Invitrogen) and 6uL was dispensed to each experimental well using a Multidrop Combi dispenser (Thermo Scientific). 6uL of assay media was dispensed to control columns used as reference for 100% compound response. Following incubation for 72 h at 37C, 5% CO2, 2 uL of resazurin was added to each well at a final concentration of 0.5 mM in phosphate buffered saline (PBS) with IGEPAL (Sigma-Aldrich), 0.05% (v/v).; type: functional, organism-based
[6] = system: Leishmania donovani; test: (§2) GSK_TCAKS: pIC50 Leishmania donovani Imaging: Infected Macrophages. Assay plates (384-well) were prepared by adding 250nL of compound to each well. For single shot assay, the final compound concentration was 5 uM. […] Automated image analysis was performed with a script developed on Acapella High Content Imaging and Analysis Software (PerkinElmer). Output: Percent of infected macrophage cells were reported for each well.; type: functional, organism-based, Homo sapiens; details: THP-1
[7] = system: Leishmania donovani; test: as §2, with “Amastigotes/Macrophages.” for “Infected Macrophages.”, “Average number” for “Percent”, “amastigotes per” for “infected”, “cell” for “cells”; type: functional, organism-based, Homo sapiens; details: THP-1
[8] = system: Leishmania donovani; test: as §2, with “THP-1 Host” for “Infected”, “THP-1 cell count” for “Percent of infected macrophage cells”; type: functional, organism-based, Homo sapiens
[9] = system: Trypanosoma brucei brucei; test: GSK_TCAKS: pIC50 Trypanosoma brucei viability assay using fluorescence intensity. Assay plates (1536-well) were prepared by dispensing 25nL of compound solution per well using an Echo acoustic dispenser (Labcyte).; type: functional, organism-based; details: Lister 427, 2 h
[10] = system: Trypanosoma brucei brucei; test: GSK_TCAKS: pIC50 Trypanosoma brucei viability assay using luminiscence. Assay plates (1536-well) were prepared. T. brucei cultures were harvested and counted in a CASY cell counter. A parasite suspension was prepared at a final concentration of 5 * 10^4 cells/mL in complete HMI9 medium and 6uL was dispensed to all wells containing compounds using a Multidrop Combi dispenser. 6uL of HMI9 media with 0.4% DMSO were dispensed to control columns. Plates were incubated for 24 h at 37C, 5% CO2 then tempered for 10 min at room temperature. ATP content was quantified by adding 4 uL of CellTiter-Glo Reagent (Promega) according to the manufacturer's instructions. Luminescence was measured using a ViewLux.; type: functional, organism-based; details: Lister 427, CASY
[11] = GSK_TCAKS: pIC50 HepG2 human cell line viability assay using luminiscence. […] Seeding density was checked to ensure that new mono-layers were not more than 50% confluent at the time of harvesting. Cell suspension was added to 500 mL of the same medium at a final density of 1.2 * 10^5 cells/mL. This cell suspension was dispensed (25 uL, 3000 cells per well) into 384-well clear-bottom plates using a Multidrop Combi dispenser. Prior to addition of the cell suspension, the screening compounds (250 nL) were pre-dispensed into the plates with an Echo liquid handler. Plates were incubated for 48 h at 37C, 5% CO2. After incubation, plates equilibrated at room temperature for 30 min before proceeding to develop the luminescent signal. The signal developer, CellTiter-Glo Reagent, was allowed to equilibrate at room temperature for 30 min and added to the plates (25uL per well) using a Multidrop Combi dispenser. Plates were left for 10 min at room temperature for stabilization and then read using a ViewLux.; type: toxicity, cell-based
[12] = target: Sterol 14-alpha demethylase (Trypanosoma cruzi (strain CL Brener), UniProt Q7Z1V1); test: GSK_TCAKS: pIC50 CYP51 from Trypanosoma cruzi.; type: functional
Sterol 14-alpha demethylase, sequence (Q7Z1V1 whole entry): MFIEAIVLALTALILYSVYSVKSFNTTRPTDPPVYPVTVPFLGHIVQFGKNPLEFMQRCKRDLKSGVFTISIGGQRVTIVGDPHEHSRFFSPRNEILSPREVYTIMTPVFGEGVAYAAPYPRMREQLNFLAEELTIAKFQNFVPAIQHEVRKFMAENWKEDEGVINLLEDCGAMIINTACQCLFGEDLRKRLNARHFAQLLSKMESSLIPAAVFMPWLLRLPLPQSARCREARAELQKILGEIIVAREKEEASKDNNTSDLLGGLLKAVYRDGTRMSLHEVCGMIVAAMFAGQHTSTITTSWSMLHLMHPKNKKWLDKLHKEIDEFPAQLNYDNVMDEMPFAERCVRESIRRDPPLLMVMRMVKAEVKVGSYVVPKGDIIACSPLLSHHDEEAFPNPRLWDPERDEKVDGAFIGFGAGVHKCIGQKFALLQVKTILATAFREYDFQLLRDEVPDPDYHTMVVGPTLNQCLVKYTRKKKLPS

Structure (SMILES) | IC50 [1] [µM] | IC50 [2] [µM] | IC50 [3] [µM] | IC50 [4] [µM] | IC50 [5] [µM] | IC50 [6] [µM] | IC50 [7] [µM] | IC50 [8] [µM] | IC50 [9] [µM] | IC50 [10] [µM] | IC50 at 48 h [11] [µM] | IC50 [12] [µM]
CCCCN(C(=O)c1ccc(NC(=O)C(C)C)cc1)c1ccccc1 | 20 | > 50.1 | 10 | > 50.1 | 1 | 5.01 | 3.16 | > 50.1 | 15.8 | > 39.8 | > 100 | 12.6
Cn1ccnc1CN1CCc2[nH]cnc2C1c1ccccc1OCc1ccccc1 (stereo not given) | 39.8 | > 50.1 | > 50.1 | > 50.1 | > 50.1 | > 50.1 | > 50.1 | > 50.1 | 0.398 | 0.501 | > 100 | 7.94
CN1CCC(N(C)c2nccc(N3CCN(C(=O)c4cccc(-c5cccnc5)c4)CC3)n2)CC1 | 0.316 | 1.26 | 1 | 7.94 | > 50.1 | 1.26 | 1.26 | 7.94 | 0.794 | 1 | 39.8 | 1.58
CC(C)c1sc(Cl)nc1C(=O)NCCc1nc(C(=O)Nc2ccc3c(c2)OCO3)cs1 | 4.47 | 1 | 0.631 | > 50.1 | 3.98 | 5.01 | 2.51 | > 50.1 | 25.1 | 25.1 | > 100 | 7.94
Cc1cc(N2CCc3ccccc3C2)nc(Nc2ccc(S(=O)(=O)N3CCOCC3)cc2)n1 | > 50.1 | > 50.1 | 25.1 | > 50.1 | 3.16 | 5.01 | 1.58 | 25.1 | 31.6 | > 39.8 | > 100 | > 100
N#Cc1cccc(Nc2nccc(N3CCC(NS(=O)(=O)c4cccc(C#N)c4)CC3)n2)c1 | 1.58 | 7.94 | 3.16 | 31.6 | 0.631 | 10 | 6.31 | > 50.1 | 6.31 | 6.31 | 50.1 | 7.94
CCC(CC)C(=O)Nc1ccc(-c2nnc(-c3ccc(OC)cc3)o2)cc1 | 5.01 | 12.6 | 3.98 | > 50.1 | > 50.1 | > 50.1 | > 50.1 | > 50.1 | 0.501 | 0.501 | > 100 | 12.6
Cc1nn2c(=O)c3c([nH]c2c1-c1ccc(Cl)cc1)CCCC3 | 0.398 | 1 | 0.251 | > 50.1 | 1.26 | > 50.1 | > 50.1 | 12.6 | 0.158 | 0.316 | > 100 | > 100
O=C(N[C@H](CO)c1ccccc1)c1ccc(-c2c[nH]c3nccc(C(F)(F)F)c23)s1 | 7.94 | 10 | 10 | 12.6 | 31.6 | 25.1 | 15.8 | 12.6 | 0.158 | 0.398 | 63.1 | 6.31
O=C(CCc1ccc(-c2ccccc2)o1)N1CCN(c2ccc(O)cc2)CC1 | 3.16 | 1.26 | 0.794 | > 50.1 | 10 | 3.98 | 1.26 | > 50.1 | 25.1 | 39.8 | > 100 | 2.51
